From patent US20130029970A1 (priority 2009, published 2013)
Where two headings read alike, the source gives them in different places.

Key:
human CB2 receptors = molecular target: T1, human CB2 receptors (Homo sapiens, UniProt P34972); experiment: cAMP assay in HEK-293 cells, hCB2 agonist; format: cell-based
T1 construct: (cDNA clone) CNR0200000
In short: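 Stable hCB2 HEK-293 cells in HBSS/10 mM HEPES/0.1% fatty-acid-free BSA incubated 30 min at 37° C with compound; forskolin 90 uM in 3× compound mix.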

human CB1 receptors = molecular target: T2, human CB1 receptors (Homo sapiens, UniProt P21554); experiment: cAMP assay in HEK-293 cells, hCB1 agonist; format: cell-based
T2 construct: (cDNA clone) CNR01L000
In short: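 Agonist EC50 taken as concentration giving half inhibition of forskolin-driven cAMP, normalized to forskolin maximum, from sigmoidal curves. Whole HEK-293 cells stably expressing hCB1, in HEPES/BSA-containing HBSS, exposed 30 min at 37° C. to compound with forskolin (90 uM in 3× dilution); cAMP read after lysis.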

[1] = molecular target: T3, recombinant human cannabinoid receptor CB1 (Homo sapiens, UniProt P21554); experiment: Cannabinoid receptor radioligand binding assay, [3H]-CP 55,940 displacement, hCB1
T3 construct: (cDNA clone) CNR01L000
In short: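 Displacement of 0.5 nM [3H]-CP 55,940 (1 μM unlabeled CP 55,940 for nonspecific) measured by filtration and scintillation counting. Binding ran 90 min at room temperature in pH 7.5 Tris buffer with 0.1% fatty-acid-free BSA, using recombinant hCB1 HEK-293 membranes at 2-10 μg protein.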

[2] = inhibition of forskolin-stimulated cAMP, HEK-293 cells, read-out: hCB2 EC50 (cAMP ag)
[3] = inhibition of forskolin-stimulated cAMP, HEK-293 cells
[4] = inhibition of forskolin-stimulated cAMP, HEK-293 cells, read-out: hCB1 EC50 (cAMP ag)

T1 sequence (P34972 whole entry): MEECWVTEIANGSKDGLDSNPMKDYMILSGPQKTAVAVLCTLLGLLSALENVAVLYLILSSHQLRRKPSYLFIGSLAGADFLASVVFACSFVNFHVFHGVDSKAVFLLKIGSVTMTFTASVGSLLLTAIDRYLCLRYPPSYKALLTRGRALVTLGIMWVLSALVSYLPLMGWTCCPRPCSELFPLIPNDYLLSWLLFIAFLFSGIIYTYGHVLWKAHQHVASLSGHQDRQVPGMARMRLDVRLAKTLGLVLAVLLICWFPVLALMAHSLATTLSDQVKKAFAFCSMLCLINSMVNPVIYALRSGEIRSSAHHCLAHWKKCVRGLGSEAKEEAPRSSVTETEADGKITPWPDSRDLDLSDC
T3 sequence (P21554 whole entry): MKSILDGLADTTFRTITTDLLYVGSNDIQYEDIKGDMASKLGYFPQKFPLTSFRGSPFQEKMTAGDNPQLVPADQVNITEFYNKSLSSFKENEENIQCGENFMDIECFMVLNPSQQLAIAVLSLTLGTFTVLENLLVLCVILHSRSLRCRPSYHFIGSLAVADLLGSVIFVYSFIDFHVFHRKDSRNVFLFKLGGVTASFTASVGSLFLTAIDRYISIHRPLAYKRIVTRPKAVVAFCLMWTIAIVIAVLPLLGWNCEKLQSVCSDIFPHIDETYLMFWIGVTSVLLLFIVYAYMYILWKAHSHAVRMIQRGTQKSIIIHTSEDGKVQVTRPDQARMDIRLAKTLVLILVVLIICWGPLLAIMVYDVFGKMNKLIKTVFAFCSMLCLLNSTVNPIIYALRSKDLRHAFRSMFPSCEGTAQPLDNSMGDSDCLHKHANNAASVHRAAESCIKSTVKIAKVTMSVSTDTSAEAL
T2 sequence (P21554 whole entry): as above

| SMILES | EC50 (human CB2 receptors; [2]) [µM] | hCB1 EC50 (cAMP ag, nM) (human CB1 receptors; [3]) | IC50 [1] [µM] | EC50 (human CB2 receptors) [µM] | EC50 (human CB1 receptors) [µM] | EC50 (human CB1 receptors; [4]) [µM] |
| --- | --- | --- | --- | --- | --- | --- |
| COc1ccc(C(=O)c2cc3cc(C)n(CCCCNS(C)(=O)=O)c3s2)cc1 [Compound 102, N-(4-(2-(4-Methoxybenzoyl)-5-methyl-6H-thieno[2,3-b]pyrrol-6-yl)butyl)methanesulfonamide] | < 0.1 | NS (NS means “Not Significant,” which means less than 30% agonist activity when compared to the positive control.) | 1 to 10 | – | – | – |
| COc1ccc(C(=O)c2cc3c(Cl)c(C)n(CCN4CCOCC4)c3s2)cc1 [Compound 140, (4-chloro-5-methyl-6-(2-morpholinoethyl)-6H-thieno[2,3-b]pyrrol-2-yl)(4-methoxyphenyl)methanone] | – | NS (NS means “Not Significant,” which means less than 30% agonist activity when compared to the positive control.) | 1 to 10 | < 0.1 | – | – |
| COc1ccc(C(=O)c2cc3cc(C)n(CCN4CCOCC4)c3s2)cc1 [Compound 36, (4-methoxyphenyl)(5-methyl-6-(2-morpholinoethyl)-6H-thieno[2,3-b]pyrrol-2-yl)methanone] | – | – | 1 to 10 | < 0.1 | 1 to 10 | – |
| COc1ccc(C(=O)c2cc3cc(C)n(CCCNS(N)(=O)=O)c3s2)cc1 [Compound 105] | – | NS (NS means “Not Significant,” which means less than 30% agonist activity when compared to the positive control.) | > 10 | 1 to 10 | – | – |
| COc1ccc(C(=O)c2cc3cc(C)n(CCN4CCCC4)c3s2)cc1 [Compound 83, (4-Methoxyphenyl)(5-methyl-6-(2-(pyrrolidin-1-yl)ethyl)-6H-thieno[2,3-b]pyrrol-2-yl)methanone] | – | – | 1 to 10 | < 0.1 | – | 1 to 10 |
| CCOc1ccc(C(=O)c2cc3cc(C)n(CCN4CCOCC4)c3s2)cn1 [Compound 150, (6-Ethoxypyridin-3-yl)(5-methyl-6-(2-morpholinoethyl)-6H-thieno[2,3-b]pyrrol-2-yl)methanone] | – | NS (NS means “Not Significant,” which means less than 30% agonist activity when compared to the positive control.) | > 10 | < 0.1 | – | – |
| COc1ccc(C(=O)c2cc3cc(C)n(Cc4ccccc4)c3s2)c(Cl)c1 [Compound 114, (6-Benzyl-5-methyl-6H-thieno[2,3-b]pyrrol-2-yl)(2-chloro-4-methoxyphenyl)methanone] | 1 to 10 | – | 1 to 10 | – | – | 1 to 10 |
| CCOC(=O)CCn1c(C)cc2cc(C(=O)c3ccc(OC)cc3)sc21 [Compound 72, Ethyl 3-(2-(4-methoxybenzoyl)-5-methyl-6H-thieno[2,3-b]pyrrol-6-yl)propanoate] | – | NS (NS means “Not Significant,” which means less than 30% agonist activity when compared to the positive control.) | > 10 | 0.1 to 1 | – | – |
| Cc1cc2cc(C(=O)c3ccc(OC(F)(F)F)cc3)sc2n1CCN1CCOCC1 [Compound 65, (5-Methyl-6-(2-morpholinoethyl)-6H-thieno[2,3-b]pyrrol-2-yl)(4-(trifluoromethoxy)phenyl)methanone] | – | NS (NS means “Not Significant,” which means less than 30% agonist activity when compared to the positive control.) | 1 to 10 | 0.1 to 1 | – | – |
| COc1ccc(C(=O)c2cc3cc(C)n(CCN4CCOCC4)c3s2)c(F)c1 [Compound 68, (2-Fluoro-4-methoxyphenyl)(5-methyl-6-(2-morpholinoethyl)-6H-thieno[2,3-b]pyrrol-2-yl)methanone] | – | – | 1 to 10 | < 0.1 | – | 1 to 10 |
| COc1ccc(Cn2c(C)cc3cc(C(=O)c4ccc(OC)cc4)sc32)cc1 [Compound 103, (6-(4-Methoxybenzyl)-5-methyl-6H-thieno[2,3-b]pyrrol-2-yl)(4-methoxyphenyl)methanone] | – | NS (NS means “Not Significant,” which means less than 30% agonist activity when compared to the positive control.) | 1 to 10 | 0.1 to 1 | – | – |
| C=Cn1c(C)cc2cc(C(=O)c3cccc(Cl)c3Cl)sc21 [Comp 29] | – | NS (NS means “Not Significant,” which means less than 30% agonist activity when compared to the positive control.) | > 10 | 0.1 to 1 | – | – |
| COc1ccc(C(=O)c2cc3cc(C)n(CCCNS(C)(=O)=O)c3s2)c(C)c1 [Compound 96, N-(3-(2-(4-Methoxy-2-methylbenzoyl)-5-methyl-6H-thieno[2,3-b]pyrrol-6-yl)propyl)methanesulfonamide] | – | NS (NS means “Not Significant,” which means less than 30% agonist activity when compared to the positive control.) | 1 to 10 | < 0.1 | – | – |
| COc1ccc(C(=O)c2cc3cc(C)n(CCC(C)(C)O)c3s2)cc1 [Compound 77, (6-(3-Hydroxy-3-methylbutyl)-5-methyl-6H-thieno[2,3-b]pyrrol-2-yl)(4-methoxyphenyl)methanone] | – | – | 1 to 10 | 0.1 to 1 | – | 1 to 10 |
| Cc1cc2cc(C(=O)c3ccc4c(c3)OCO4)sc2n1CCN1CCOCC1 [Compound 106, Benzo[d][1,3]dioxol-5-yl(5-methyl-6-(2-morpholinoethyl)-6H-thieno[2,3-b]pyrrol-2-yl)methanone] | – | NS (NS means “Not Significant,” which means less than 30% agonist activity when compared to the positive control.) | 1 to 10 | < 0.1 | – | – |
| COc1cc(F)c(C(=O)c2cc3cc(C)n(CCN4CCOCC4)c3s2)c(F)c1 [Compound 127, (2,6-difluoro-4-methoxyphenyl)(5-methyl-6-(2-morpholinoethyl)-6H-thieno[2,3-b]pyrrol-2-yl)methanone] | – | – | 1 to 10 | < 0.1 | – | 1 to 10 |
| COc1ccc(C(=O)c2cc3cc(C)n(CCN4CCCCC4)c3s2)c(Cl)c1 [Compound 90, (2-Chloro-4-methoxyphenyl)(5-methyl-6-(2-(piperidin-1-yl)ethyl)-6H-thieno[2,3-b]pyrrol-2-yl)methanone] | – | – | 0.1 to 1 | < 0.1 | – | 0.1 to 1 |
| CCOc1ccc(C(=O)c2cc3cc(C)n(CCN4CCOCC4)c3s2)c(F)c1 [Compound 89, (4-Ethoxy-2-fluorophenyl)(5-methyl-6-(2-morpholinoethyl)-6H-thieno[2,3-b]pyrrol-2-yl)methanone] | – | – | 1 to 10 | < 0.1 | – | 1 to 10 |
| Cc1cc2cc(C(=O)c3cccc(Cl)c3Cl)sc2n1CCN1CCCC1 [Compound 28, (2,3-Dichlorophenyl)(5-methyl-6-(2-(pyrrolidin-1-yl)ethyl)-6H-thieno[2,3-b]pyrrol-2-yl)methanone] | – | NS (NS means “Not Significant,” which means less than 30% agonist activity when compared to the positive control.) | 0.1 to 1 | < 0.1 | – | – |
| Cc1cc2cc(C(=O)c3cccnc3Cl)sc2n1CCN1CCOCC1 [Compound 17, (2-Chloropyridin-3-yl)(5-methyl-6-(2-morpholinoethyl)-6H-thieno[2,3-b]pyrrol-2-yl)methanone] | – | NS (NS means “Not Significant,” which means less than 30% agonist activity when compared to the positive control.) | > 10 | < 0.1 | – | – |
| COc1ccc(C(=O)c2cc3cc(C)n(CCN4CCCCC4)c3s2)c(O)c1 [Compound 99, (2-Hydroxy-4-methoxyphenyl)(5-methyl-6-(2-(piperidin-1-yl)ethyl)-6H-thieno[2,3-b]pyrrol-2-yl)methanone] | – | NS (NS means “Not Significant,” which means less than 30% agonist activity when compared to the positive control.) | 1 to 10 | < 0.1 | – | – |
| Cc1cc2cc(C(=O)c3cccc(F)c3F)sc2n1CCN1CCOCC1 [Compound 8, (2,3-Difluorophenyl)(5-methyl-6-(2-morpholinoethyl)-6H-thieno[2,3-b]pyrrol-2-yl)methanone] | – | NS (NS means “Not Significant,” which means less than 30% agonist activity when compared to the positive control.) | 1 to 10 | < 0.1 | – | – |
| COc1ccc(C(=O)c2cc3cc(C)n(CCN4CCCC4)c3s2)c(F)c1 [Compound 92, (2-Fluoro-4-methoxyphenyl)(5-methyl-6-(2-(pyrrolidin-1-yl)ethyl)-6H-thieno[2,3-b]pyrrol-2-yl)methanone] | – | – | 1 to 10 | < 0.1 | – | 1 to 10 |
| Cc1ccc(C(=O)c2cc3cc(C)n(CCN4CCOCC4)c3s2)c(Cl)c1 [Compound 86, (2-Chloro-4-methylphenyl)(5-methyl-6-(2-morpholinoethyl)-6H-thieno[2,3-b]pyrrol-2-yl)methanone] | – | – | 0.1 to 1 | < 0.1 | – | 1 to 10 |
| COc1ccc(C(=O)c2cc3cc(C)n(CCN4CCCCC4)c3s2)cn1 [Compound 117, (6-Methoxypyridin-3-yl)(5-methyl-6-(2-(piperidin-1-yl)ethyl)-6H-thieno[2,3-b]pyrrol-2-yl)methanone] | – | NS (NS means “Not Significant,” which means less than 30% agonist activity when compared to the positive control.) | 1 to 10 | < 0.1 | – | – |
